# Measured values reported in US20240228489A1, “POSITIVE ALLOSTERIC MODULATORS OF THE MUSCARINIC ACETYLCHOLINE RECEPTOR M1” (Vanderbilt University, priority 2021, published 2024).
# Assays:
# human mAChR M1 [1] = biological target: T1, human mAChR M1 (Homo sapiens, UniProt P11229); experiment: mAChR M1 cell-based functional assay (calcium mobilization), PAM mode: increase in the EC20 acetylcholine response
# T1 sequence (P11229 1-460): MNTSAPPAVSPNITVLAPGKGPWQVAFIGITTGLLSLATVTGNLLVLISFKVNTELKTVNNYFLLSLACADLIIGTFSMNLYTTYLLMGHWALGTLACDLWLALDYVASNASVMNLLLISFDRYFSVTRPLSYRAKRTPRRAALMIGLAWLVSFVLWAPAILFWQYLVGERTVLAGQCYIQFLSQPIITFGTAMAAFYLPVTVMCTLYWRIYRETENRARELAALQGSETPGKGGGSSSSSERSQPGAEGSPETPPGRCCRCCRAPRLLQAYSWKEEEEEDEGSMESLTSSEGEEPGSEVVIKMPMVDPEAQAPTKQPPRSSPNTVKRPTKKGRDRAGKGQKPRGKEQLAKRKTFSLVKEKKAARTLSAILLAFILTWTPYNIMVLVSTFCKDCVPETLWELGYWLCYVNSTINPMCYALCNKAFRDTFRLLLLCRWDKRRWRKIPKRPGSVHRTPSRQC
# Method in brief: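 PAM readout is the concentration-dependent rise in the EC20 acetylcholine calcium signal, fitted to a four-parameter logistic (EC50, Emax). Compounds were preincubated from 4 s before ACh at 144 s (EC20) and 230 s (EC80). hM1-expressing CHO-K1 cells loaded with Fluo-4, FDSS ratio read.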
# human mAChR M1 [2] = biological target: T1, human mAChR M1; experiment: mAChR M1 cell-based functional assay (calcium mobilization), agonist mode: compound alone, Emax relative to acetylcholine maximum; conditions: for EC50 / Agonist Activity Human M1 EC50: human mAChR M1; for Emax: relative to the maximum for acetylcholine
# Method in brief: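 Agonist activity is the concentration-dependent rise in intracellular calcium (Fluo-4, 1 Hz read) after compound addition, measured before any acetylcholine was added, in stable hM1 CHO-K1 cells. Curves were 11-point, 1:3 dilutions fitted by four-parameter logistic. Emax is given as a fraction of maximal acetylcholine response.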
SMILES,EC50 (human mAChR M1 [1]) [nM],Emax (human mAChR M1 [1]) [%],EC50 (human mAChR M1 [2]) [nM],Emax (human mAChR M1 [2]) [%],Agonist Activity Human M1 EC50 (human mAChR M1 [2])
"[2H]C1([2H])c2ncccc2C(=O)N1Cc1c(C)cc(-c2ccc(C)c3nn(C)cc23)cc1F [Compound 197, 6-(4-(2,7-dimethyl-2H-indazol-4-yl)-2-fluoro-6-methylbenzyl)-6,7-dihydro-5H-pyrrolo[3,4-b]pyridin-5-one-7,7-d2]",433,85,≥ 10000,37,–
"[2H]C1([2H])c2ncccc2C(=O)N1Cc1c(F)cc(-c2ccnc3nn(C([2H])([2H])[2H])cc23)cc1F [Compound 188, 6-(2,6-difluoro-4-(2-(methyl-d3)-2H-pyrazolo[3,4-b]pyridin-4-yl)benzyl)-6,7-dihydro-5H-pyrrolo[3,4-b]pyridin-5-one-7,7-d2]",2710,71,–,9,Inactive
"[2H]C1([2H])c2ncccc2C(=O)N1Cc1c(F)cc(-c2cnc3nn(C)cc3c2)cc1Cl [Compound 168, 6-(2-chloro-6-fluoro-4-(2-methyl-2H-pyrazolo[3,4-b]pyridin-5-yl)benzyl)-6,7-dihydro-5H-pyrrolo[3,4-b]pyridin-5-one-7,7-d2]",1480,86,–,6,Inactive
"[2H]C1([2H])c2ncccc2C(=O)N1Cc1c(F)cc(-c2ccc(OC(F)F)c3nn(C)cc23)cc1F [Compound 102, 6-(4-(7-(difluoromethoxy)-2-methyl-2H-indazol-4-yl)-2,6-difluorobenzyl)-6,7-dihydro-5H-pyrrolo[3,4-b]pyridin-5-one-7,7-d2]",469,77,–,9,Inactive
"[2H]C1([2H])c2ncccc2C(=O)N1Cc1c(F)cc(-c2cccc3c2cnn3C)cc1F [Compound 35, 6-(2,6-difluoro-4-(1-methyl-1H-indazol-4-yl)benzyl)-6,7-dihydro-5H-pyrrolo[3,4-b]pyridin-5-one-7,7-d^2]",2420,63,> 10000,2,–
"[2H]C1([2H])c2ncccc2C(=O)N1Cc1c(F)cc(-c2ccc(OCCOC)c3nn(C([2H])([2H])[2H])cc23)cc1F [Compound 114, 6-(2,6-difluoro-4-(7-(2-methoxyethoxy)-2-(methyl-d3)-2H-indazol-4-yl)benzyl)-6,7-dihydro-5H-pyrrolo[3,4-b]pyridin-5-one-7,7-d2]",162,77,8010,43,–
"[2H]C1([2H])c2ncccc2C(=O)N1Cc1ccc(-c2ccc(OCCOC3CC3)c3nn(C)cc23)cc1F [Compound 154, 6-(4-(7-(2-cyclopropoxyethoxy)-2-methyl-2H-indazol-4-yl)-2-fluorobenzyl)-6,7-dihydro-5H-pyrrolo[3,4-b]pyridin-5-one-7,7-d2]",1090,77,≥ 10000,17,–

# More lines, in order of falling EC50 (human mAChR M1 [1]), values ahead:
EC50 (human mAChR M1 [1]) [nM],Emax (human mAChR M1 [1]) [%],EC50 (human mAChR M1 [2]) [nM],Emax (human mAChR M1 [2]) [%],Agonist Activity Human M1 EC50 (human mAChR M1 [2]),SMILES
2480,82,8250,34,–,"[2H]C1([2H])c2ncccc2C(=O)N1Cc1c(C)cc(-c2cccc3nn(C)cc23)cc1F (single isomer, unassigned) [Compound 155, 6-(2-Fluoro-6-methyl-4-(2-methyl-2H-indazol-4-yl)benzyl)-6,7-dihydro-5H-pyrrolo[3,4-b]pyridin-5-one-7,7-d2]"
476,82,–,3,Inactive,"[2H]C1([2H])c2ncccc2C(=O)N1Cc1c(F)cc(-c2ccc(F)c3nn(C)cc23)cc1Cl [Compound 164, 6-(2-chloro-6-fluoro-4-(7-fluoro-2-methyl-2H-indazol-4-yl)benzyl)-6,7-dihydro-5H-pyrrolo[3,4-b]pyridin-5-one-7,7-d2]"
195,77,7930,47,–,"[2H]C1([2H])c2ncccc2C(=O)N1Cc1c(F)cc(-c2ccc(O)c3nn(C([2H])([2H])[2H])cc23)cc1F [Compound 132, 6-(2,6-difluoro-4-(7-hydroxy-2-(methyl-d3)-2H-indazol-4-yl)benzyl)-6,7-dihydro-5H-pyrrolo[3,4-b]pyridin-5-one-7,7-d2]"
